In US11053235B2, “Substituted 1,4-dihydropyrimidines for the treatment of HBV infection or HBV-induced diseases” (Janssen Sciences Ireland Unlimited Company, priority 2018, dated 2021):

Columns and labels:
HBV = assay: Anti-viral assay in HepG2.2.15 cells: HBV inhibitory activity (HBV DNA in culture medium by q-PCR); type: cell-based; conditions: Hepatitis B virus, HepG2.2.15, 144 h, HepG2.2.15 cells, 6 days treatment, HBV DNA in culture medium by q-PCR, highest concentration 10 uM; read-out: EC50
Summary of the method: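 HepG2.2.15 cells seeded at 40,000/well in 2% FBS medium, dosed next day for 6 days (medium refreshed once midway); 8-point 3-fold dilutions from 10 uM top. HBV DNA in culture medium extracted and quantified by q-PCR; EC50 calculated from dose-response.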

[1] = Cytotoxicity determination in HepG2.2.15 cells (CCK-8); type: cell-based; conditions: human, 6 days treatment, CCK-8, highest concentration 100 uM
Summary of the method: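 HepG2.2.15 cells seeded at 5,000 cells/well in 2% FBS medium and exposed to compounds for 6 days (medium refreshed once), 8 three-fold dilutions from 100 uM. Viability read by CCK-8 after 2.5 h at 37 °C, absorbance 450 nm with 630 nm reference; CC50 calculated.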

Structure (SMILES)	EC50 (HBV) [nM]	CC50 at 6 days [1] [µM]
CCOC(=O)C1=C(C2CCN(c3cc(C(=O)O)cc(C(F)(F)F)n3)CC2)NC(c2nccs2)=NC1c1ccc(F)c(F)c1Cl (single isomer, unassigned) [II-38-B, 2-(4-(6-(2-chloro-3,4-difluorophenyl)-5-(ethoxycarbonyl)-2-(thiazol-2-yl)-3,6-dihydropyrimidin-4-yl)piperidin-1-yl)-6-(trifluoromethyl)isonicotinic Acid]	81	3.88
CCOC(=O)C1=C(C2CCN(c3cc(C(=O)O)c(C(F)(F)F)cn3)CC2)NC(c2nccs2)=NC1c1ccc(F)c(F)c1Cl (single isomer, unassigned) [II-39-B, 2-(4-(6-(2-Chloro-3,4-difluorophenyl)-5-(ethoxycarbonyl)-2-(thiazol-2-yl)-3,6-dihydropyrimidin-4-yl)piperidin-1-yl)-5-(trifluoromethyl)isonicotinic Acid]	14	5.38
CCOC(=O)C1=C(C2CCN(c3nccc(C(=O)O)c3F)CC2)NC(c2nccs2)=NC1c1ccc(F)c(F)c1Cl (single isomer, unassigned) [II-40-B, 2-(4-(6-(2-Chloro-3,4-difluorophenyl)-5-(ethoxycarbonyl)-2-(thiazol-2-yl)-3,6-dihydropyrimidin-4-yl)piperidin-1-yl)-3-fluoroisonicotinic Acid]	9.1	8.37
CCOC(=O)C1=C(C2CCN(c3cc(C(=O)O)ccn3)CC2)NC(c2nccs2)=NC1c1ccc(F)c(F)c1Cl (single isomer, unassigned) [II-41-B, 2-(4-(6-(2-Chloro-3,4-difluorophenyl)-5-(ethoxycarbonyl)-2-(thiazol-2-yl)-3,6-dihydropyrimidin-4-yl)piperidin-1-yl)isonicotinic Acid]	5.2	10.2
CCOC(=O)C1=C(C2CCN(c3ccc(C(=O)O)nc3Cl)CC2)NC(c2nccs2)=NC1c1ccc(F)c(F)c1Cl (single isomer, unassigned) [II-42-B, 6-Chloro-5-(4-(6-(2-chloro-3,4-difluorophenyl)-5-(ethoxycarbonyl)-2-(thiazol-2-yl)-3,6-dihydropyrimidin-4-yl)piperidin-1-yl)picolinic Acid]	56	2.57
CCOC(=O)C1=C(C2CCN(c3ccc(C(=O)O)cn3)CC2)NC(c2nccs2)=NC1c1ccc(F)c(F)c1Cl (single isomer, unassigned) [II-43-B, 6-(4-(6-(2-Chloro-3,4-difluorophenyl)-5-(ethoxycarbonyl)-2-(thiazol-2-yl)-3,6-dihydropyrimidin-4-yl)piperidin-1-yl)nicotinic Acid]	16	11.4
CCOC(=O)C1=C(C2CCN(c3cc(C(F)(F)F)c(C(=O)O)cn3)CC2)NC(c2nccs2)=NC1c1ccc(F)c(F)c1Cl (single isomer, unassigned) [II-44-B, 6-(4-(6-(2-Chloro-3,4-difluorophenyl)-5-(ethoxycarbonyl)-2-(thiazol-2-yl)-3,6-dihydropyrimidin-4-yl)piperidin-1-yl)-4-(trifluoromethyl)nicotinic Acid]	7.6	4.77
CCOC(=O)C1=C(C2CCN(c3ncc(C(=O)O)cc3F)CC2)NC(c2nccs2)=NC1c1ccc(F)c(F)c1Cl (single isomer, unassigned) [II-45-B, 6-(4-(6-(2-Chloro-3,4-difluorophenyl)-5-(ethoxycarbonyl)-2-(thiazol-2-yl)-3,6-dihydropyrimidin-4-yl)piperidin-1-yl)-5-fluoronicotinic Acid]	8.7	4.43
CCOC(=O)C1=C(C2CCN(c3cc(C)c(C(=O)O)nn3)CC2)NC(c2nccs2)=NC1c1ccc(F)c(F)c1Cl (single isomer, unassigned) [II-46-B, 6-(4-(6-(2-Chloro-3,4-difluorophenyl)-5-(ethoxycarbonyl)-2-(thiazol-2-yl)-3,6-dihydropyrimidin-4-yl)piperidin-1-yl)-4-methylpyridazine-3-carboxylic Acid]	100	3.67
CCOC(=O)C1=C(C2CCN(c3cnc(OC)c(C(=O)O)n3)CC2)NC(c2nccs2)=NC1c1ccc(F)c(F)c1Cl (single isomer, unassigned) [II-47-B, 6-(4-(6-(2-chloro-3,4-difluorophenyl)-5-(ethoxycarbonyl)-2-(thiazol-2-yl)-3,6-dihydropyrimidin-4-yl)piperidin-1-yl)-3-methoxypyrazine-2-carboxylic Acid]	25	11.1
CCOC(=O)C1=C(C2CCN(c3cnc(C)c(C(=O)O)n3)CC2)NC(c2nccs2)=NC1c1ccc(F)c(F)c1Cl (single isomer, unassigned) [II-48-B, 6-(4-(6-(2-chloro-3,4-difluorophenyl)-5-(ethoxycarbonyl)-2-(thiazol-2-yl)-3,6-dihydropyrimidin-4-yl)piperidin-1-yl)-3-methylpyrazine-2-carboxylic Acid]	79	12.9
CCOC(=O)C1=C(C2CCN(c3cnc(C(=O)O)c(C)n3)CC2)NC(c2nccs2)=NC1c1ccc(F)c(F)c1Cl (single isomer, unassigned) [II-49-B, 5-(4-(6-(2-Chloro-3,4-difluorophenyl)-5-(ethoxycarbonyl)-2-(thiazol-2-yl)-3,6-dihydropyrimidin-4-yl)piperidin-1-yl)-3-methylpyrazine-2-carboxylic Acid]	50	0.11
CCOC(=O)C1=C(C2CCN(c3ncc(C(=O)O)o3)CC2)NC(c2nccs2)=NC1c1ccc(F)c(F)c1Cl (single isomer, unassigned) [II-50-B, 2-(4-(6-(2-Chloro-3,4-difluorophenyl)-5-(ethoxycarbonyl)-2-(thiazol-2-yl)-3,6-dihydropyrimidin-4-yl)piperidin-1-yl)oxazole-5-carboxylic Acid]	26	19
CCOC(=O)C1=C(C2CCN(c3cnc(C(=O)O)cn3)CC2)NC(c2nccs2)=NC1c1ccc(F)c(F)c1Cl (single isomer, unassigned) [II-51-B, 5-(4-(6-(2-Chloro-3,4-difluorophenyl)-5-(ethoxycarbonyl)-2-(thiazol-2-yl)-3,6-dihydropyrimidin-4-yl)piperidin-1-yl)pyrazine-2-carboxylic Acid]	< 4.6	0.67
CCOC(=O)C1=C(C2CCN(c3cc(C(=O)O)nc(OC)n3)CC2)NC(c2nccs2)=NC1c1ccc(F)c(F)c1Cl (single isomer, unassigned) [II-52-B, 6-(4-(6-(2-Chloro-3,4-difluorophenyl)-5-(ethoxycarbonyl)-2-(thiazol-2-yl)-3,6-dihydropyrimidin-4-yl)piperidin-1-yl)-2-methoxypyrimidine-4-carboxylic Acid]	51	3.7
CCOC(=O)C1=C(C2CCN(c3cc(C(=O)O)nc(C)n3)CC2)NC(c2nccs2)=NC1c1ccc(F)c(F)c1Cl (single isomer, unassigned) [II-53-B, 6-(4-(6-(2-Chloro-3,4-difluorophenyl)-5-(ethoxycarbonyl)-2-(thiazol-2-yl)-3,6-dihydropyrimidin-4-yl)piperidin-1-yl)-2-methylpyrimidine-4-carboxylic Acid]	98	9.05
CCOC(=O)C1=C(C2CCN(c3cc(C(=O)O)ncn3)CC2)NC(c2nccs2)=NC1c1ccc(F)c(F)c1Cl (single isomer, unassigned) [II-54-B, 6-(4-(6-(2-Chloro-3,4-difluorophenyl)-5-(ethoxycarbonyl)-2-(thiazol-2-yl)-3,6-dihydropyrimidin-4-yl)piperidin-1-yl)pyrimidine-4-carboxylic Acid]	19	10.3
CCOC(=O)C1=C(C2CCN(c3ncc([C@]4(O)C[C@@H](C(=O)O)C4)cn3)CC2)NC(c2nccs2)=NC1c1ccc(F)c(F)c1Cl (single isomer, unassigned) [II-55-B, (trans)-3-(2-(4-(6-(2-Chloro-3,4-difluorophenyl)-5-(ethoxycarbonyl)-2-(thiazol-2-yl)-3,6-dihydropyrimidin-4-yl)piperidin-1-yl)pyrimidin-5-yl)-3-hydroxycyclobutanecarboxylic Acid]	< 4.6	7.96
CCOC(=O)C1=C(C2CCN(c3nc(C)c(C)c(C(=O)O)n3)CC2)NC(c2nccs2)=NC1c1ccc(F)c(F)c1Cl (single isomer, unassigned) [II-56-B, 2-(4-(6-(2-Chloro-3,4-difluorophenyl)-5-(ethoxycarbonyl)-2-(thiazol-2-yl)-3,6-dihydropyrimidin-4-yl)piperidin-1-yl)-5,6-dimethylpyrimidine-4-carboxylic Acid]	22	5.54
CCOC(=O)C1=C(C2CCN(c3nc(OC)cc(C(=O)O)n3)CC2)NC(c2nccs2)=NC1c1ccc(F)c(F)c1Cl (single isomer, unassigned) [II-57-B, 2-(4-(6-(2-chloro-3,4-difluorophenyl)-5-(ethoxycarbonyl)-2-(thiazol-2-yl)-3,6-dihydropyrimidin-4-yl)piperidin-1-yl)-6-methoxypyrimidine-4-carboxylic Acid]	100	4.88
CCOC(=O)C1=C(C2CCN(c3nc(C)cc(C(=O)O)n3)CC2)NC(c2nccs2)=NC1c1ccc(F)c(F)c1Cl (single isomer, unassigned) [II-58-B, 2-(4-(6-(2-Chloro-3,4-difluorophenyl)-5-(ethoxycarbonyl)-2-(thiazol-2-yl)-3,6-dihydropyrimidin-4-yl)piperidin-1-yl)-6-methylpyrimidine-4-carboxylic Acid]	37	4.8
